From patent publication US20040162275A1, “Multivalently interactive molecular assembly, capturing agent, drug carrier, calcium chelating agent, and drug enhancer” (Nobuhiko Yui, priority 2002, published 2004) come the findings set out here.

The target of this test is concanavalin A (ConA) (Canavalia ensiformis, UniProt P02866). As to the kind of experiment: Hemagglutination inhibition test, Mal-polyrotaxane conjugate and ConA (Example 11). The test is classed as cell-based. Conditions: rat erythrocyte, ConA at 4-fold minimum hemagglutinating concentration, maltose basis, FIG. 19. The method, then:
Next, hemagglutination inhibition test was performed to evaluate the interaction between Mal-polyrotaxane conjugate and concanavalin A (ConA), then 20 μL of diluted Mal-polyrotaxane conjugate in saline and 20 μL of solution of ConA in saline were dispensed in a 96well plate (U-bottom), stirred, and then incubated at 37° C. for 30 minutes. Next, 40 μL of 2% (v/v) rat erytlirocyte was added to the plate, and the mixture was stirred and then incubated at 37° C. for 30 minutes. The precipitation of erythrocyte was monitored to determine hemagglutination, and the minimum concentration to inhibit hemagglutination was determined. The ConA concentration was set up at a 4-fold higher value than the minimum concentration of ConA at which hemagglutination occurs.
Relative MIC=(Min. inhibitory conc. of maltose)/(Min inhibitory conc. of maltose in the conjugate)

Regarding `OC[C@H]1O[C@H](O[C@H]2[C@H](O)[C@@H](O)C(O)O[C@@H]2CO)[C@H](O)[C@@H](O)[C@@H]1O` (mixture of isomers) [Mal, maltose], the “minimum concentration to inhibit hemagglutination” value was 9.1 mM.
